Reference: patent publication US6413974B1, “6,9,-disubstituted 2-[trans-(4-aminocyclohexyl) amino] purines” (Aventis Pharmaceuticals Inc., priority 1998, dated 2002)
Several values for one entry are separate records, joined by “and”; a condition that tells them apart may be missing. Identical values can stand only once. Counter-ions that a name gives are not always drawn. Like-named read-outs stand apart in the source and are kept apart here.

Tests used:
HT-29 = assay: In vitro tumor cell proliferation, HT-29; assay type: cell-based, human; settings: read-out: In vitro Tumor Cell Proliferation (IC50, μM) Colon HT-29 (converted)
Method: (§1) The proliferation of tumor cells was measured using a sulforhodamine B assay as described in Skehan, P., et al., J. Natl. Cancer Inst. […] Tumor cells were harvested with trypsin-EDTA, cells that excluded trypan blue were counted, added to 96-well plates and incubated overnight at 37° C. Drug was added to the wells following dilution in culture medium. Three days later, the medium was removed and replenished with medium containing fresh drug and incubated an additional 4 days. The cells were then fixed with 0.1 ml 10% trichloroacetic acid for 60 min at 4° C. The plates were rinsed five times with tap water, air-dried and stained for 30 min with 0.4% sulforhodamine B in 1% acetic acid and air-dried.
(§2) Alternatively, the CyQUANT cell proliferation assay was used to quantify tumor cell proliferation. Tumor cells were harvested with trypsin-EDTA, cells that excluded trypan blue were counted, added to 96-well plates and incubated overnight at 37° C. Drug was added to the wells following dilution in culture medium. Three days later the medium was removed and the plates frozen at −80° C. for at least 30 minutes.
HT-29 is a human colon adenocarcinoma, moderately well-differentiated grade II (HTB 38);

Colo-205 = assay: In vitro tumor cell proliferation, Colo-205; assay type: cell-based, human; settings: read-out: In vitro Tumor Cell Proliferation (IC50, μM) Colon Colo-205
Method: as §1, §2

MDA-MB-231 = assay: In vitro tumor cell proliferation, MDA-MB-231; assay type: cell-based, human; settings: read-out: In vitro Tumor Cell Proliferation (IC50, μM) Breast MDA-MB-231
Method: as §1, §2

cdk4/cyclin D1 = biological target: T1, cdk4/cyclin D1 (Homo sapiens, UniProt P11802); assay: Cyclin-dependent kinase 4 Assay; assay type: biochemical; settings: cdk4/cyclin D1, GST-Rb substrate, 10 μM ATP, 30 min at 37° C.; read-out: CDK4 Inhibition IC50
T1 construct: made in house; host or cells: Sf9 insect cells (Bac-to-Bac baculovirus, pFastBac)
Method: The IC50 values for cdk-4 inhibition were by the following method:
(§3) The transformed bacteria were grown overnight to saturation, then diluted in YT broth and incubated at 37° C. for 2 h. The protein was induced by incubation with 0.1 mM isopropylthioglycoside for 3 h. Following sedimentation by centrifugation, the cells were lysed by sonication in STE buffer ([…] NaCl, 10 mM Tris, pH 8.0, 1 mM EDTA) containing 10% sarkosyl. Particulate matter was removed by centrifugation and the lysate was incubated with glutathione-Sepharose at 4° C. The beads were washed with kinase buffer and then quantitation of Coomassie blue-stained proteins separated by SDS-PAGE was performed using a protein standard of known concentration.
The cDNA for human cyclin D1 was cloned by RT PCR using […] from MCF-7 cells. […] Bacmid DNA was used to transfect Sf9 insect cells to produce recombinant virus. Following plaque purification of the virus, the viral preparations were amplified until high titer stocks were acheived.
Lysates were prepared by lysis of Sf9 cells coinfected with cdk4 and cyclin D1 in 50 mM HEPES, pH 7.5, 10 mM MgCl2, 1 mM DTT, 0.1 mM phenylmethylsulfonyl fluoride, 5 μg/ml aprotinin, and 5 μg/ml leupeptin using a PARR bomb under 500 p.s.i nitrogen pressure for 5 min at 4° C. Insoluble material was sedimented at 10,000×g for 20 min at 4° C. Glycerol was added to the supernatant to 10% and stored at −80° C. in aliquots.
(§4) Pre-wet Millipore Multiscreen 96-well filter plates (0.65 μm Durapore filters) with 200 μl kinase buffer (50 mM HEPES, pH 7.5, 10 mM MgCl2, 1 mM EGTA). GST-Rb (0.5 μg) bound to glutathione-Sepharose beads is added in 50 μl per well and the solution removed by application of vacuum. […] Add 0.1 μg cdk4/cyclin D1 (insect cell lysate) to initiate assay. Incubate 30 min at 37° C. Terminate reaction by filtration on Millipore Vacuum Manifold. Wash four times with TNEN (20 mM Tris, pH 8.0, 100 mM Na Cl, 1 mM EDTA, 0.5% nonidet P-40). After drying the plates at room temperature, the filter plates were placed in adapter plates (Packard) and 40 μl of Microscint-O® (Packard) was added to each well. Top Seal A film was used to cover the plates before counting in a Top Count Scintillation Counter.

MDA-MB-435 = assay: In vitro tumor cell proliferation, MDA-MB-435; assay type: cell-based, human; settings: read-out: In vitro Tumor Cell Proliferation (IC50, μM) Breast MDA-MB-435
Method: as §1, §2

DMS-114 = assay: In vitro tumor cell proliferation, DMS-114; assay type: cell-based, human; settings: read-out: In vitro Tumor Cell Proliferation (IC50, μM) Lung DMS-114
Method: as §1, §2

cdk2/cyclin E = biological target: T2, cdk2/cyclin E (Homo sapiens, UniProt P24941); assay: Cyclin-Dependent Kinase 2 Assay (cdk-2 inhibition); assay type: biochemical; settings: GST-Rb substrate, 30 min at 30° C.
T2 construct: made in house; host or cells: insect cells (baculovirus co-infection)
Method: as §3, §4
GST-Rb as described above for cdk4/cyclin D1
Assay conditions for cdk2/cyclin E were identical to those for cdk4/cyclin D1 including the substrate. The concentration of recombinant cdk2/cyclin E in the assay was 0.1 μg per 100 μl assay. Incubation was for 30 min at 30° C.

DU 145 = assay: In vitro tumor cell proliferation, DU 145; assay type: cell-based, human; settings: read-out: In vitro Tumor Cell Proliferation (IC50, μM) Prostate DUI45
Method: as §1, §2

A549 = assay: In vitro tumor cell proliferation, A549; assay type: cell-based, human; settings: read-out: In vitro Tumor Cell Proliferation (IC50, μM) Lung A549
Method: as §1, §2

PC-3 = assay: In vitro tumor cell proliferation, PC-3; assay type: cell-based, human; settings: read-out: In vitro Tumor Cell Proliferation (IC50, μM) Prostate PC-3
Method: as §1, §2

[1] = Homo sapiens, HT-29, values marked * (mark not explained)
[2] = Homo sapiens, COLO 205, values marked * (mark not explained)
[3] = values marked * (mark not explained), dihydrochloride
[4] = Homo sapiens, MDA-MB-231, values marked * (mark not explained)
[5] = Homo sapiens, DMS-114, values marked * (mark not explained)
[6] = Homo sapiens, DU-145, values marked * (mark not explained)
[7] = Homo sapiens, A549, values marked * (mark not explained)
[8] = Homo sapiens, PC-3, values marked * (mark not explained)
[9] = Homo sapiens, MDA-MB-435, values marked * (mark not explained)

T1 sequence (P11802 whole entry): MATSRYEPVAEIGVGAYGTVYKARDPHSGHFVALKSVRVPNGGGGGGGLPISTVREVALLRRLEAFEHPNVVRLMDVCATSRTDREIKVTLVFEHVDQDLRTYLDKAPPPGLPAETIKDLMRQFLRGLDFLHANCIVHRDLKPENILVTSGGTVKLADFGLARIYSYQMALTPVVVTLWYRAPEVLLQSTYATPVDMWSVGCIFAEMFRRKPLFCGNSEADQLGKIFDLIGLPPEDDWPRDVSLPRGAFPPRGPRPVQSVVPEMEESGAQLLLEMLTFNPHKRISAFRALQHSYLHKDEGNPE
T1 sequence (P24385 whole entry partner): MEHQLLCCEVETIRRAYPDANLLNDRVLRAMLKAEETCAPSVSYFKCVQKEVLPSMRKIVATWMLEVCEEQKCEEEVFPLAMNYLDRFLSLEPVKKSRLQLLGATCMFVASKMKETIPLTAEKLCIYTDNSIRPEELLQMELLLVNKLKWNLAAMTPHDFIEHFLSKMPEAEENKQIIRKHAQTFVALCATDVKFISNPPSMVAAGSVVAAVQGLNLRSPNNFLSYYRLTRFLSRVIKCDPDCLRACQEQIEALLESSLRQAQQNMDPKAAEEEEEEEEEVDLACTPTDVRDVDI

Structure (SMILES) | IC50 (HT-29; [1]) | IC50 (Colo-205; [2]) | IC50 (Colo-205; [3]) | IC50 (MDA-MB-231; [4]) | IC50 (MDA-MB-231; [3]) | IC50 (cdk4/cyclin D1) | IC50 (MDA-MB-435; [3]) | IC50 (DMS-114; [5]) | IC50 (DMS-114; [3]) | IC50 (cdk2/cyclin E) | IC50 (DU 145; [6]) | IC50 (DU 145; [3]) | IC50 (A549; [7]) | IC50 (HT-29; [3]) | IC50 (PC-3; [8]) | IC50 (PC-3; [3]) | IC50 (MDA-MB-435; [9]) | IC50 (A549; [3]) | IC50 (DU 145; Homo sapiens, DU-145, values without *)
N[C@H]1CC[C@H](Nc2nc(NCCc3c[nH]c4ccccc34)c3ncn(C4CCCC4)c3n2)CC1 [Example 2, 2-[Trans-(4-aminocyclohexyl)amino]-6-[(3-indolyl)-2-ethylamino]-9-cyclopentylpurine dihydrochloride] | 10 µM | 11 µM | 8.6 µM | 6.5 µM | 6.6 µM | 0.6 µM and 0.9 µM | 11 µM | 8.7 µM | 10 µM | 0.14 µM | 12 µM | 6.7 µM | 11 µM | – | – | – | – | – | –
N[C@H]1CC[C@H](Nc2nc(NCCCN3CCOCC3)c3ncn(C4CCCC4)c3n2)CC1 [Example 9, 2-[Trans-(4-aminocyclohexyl)amino]-6-[3-(4-morpholinyl)propylamino]-9-cyclopentylpurine dihydrochloride] | 5.6 µM | – | – | 2.7 µM | 2.6 µM | 0.3 µM and 0.4 µM | 6 µM | 3.7 µM | 2.8 µM | 0.09 µM and 0.15 µM | 4.4 µM | 3.2 µM | – | 5.1 µM | 4.6 µM | 3.1 µM | 5.2 µM | – | –
N[C@H]1CC[C@H](Nc2nc(NCCc3ccccn3)c3ncn(C4CCCC4)c3n2)CC1 [Example 12, 2-[Trans-(4-aminocyclohexyl)amino]-6-[2-(2-pyridyl)ethylamino]-9-cyclopentylpurine dihydrochloride] | 11 µM | 6.4 µM | 6.2 µM | 6 µM | – | 0.3 µM and 0.2 µM | 9.4 µM | 15 µM | 11 µM | 0.22 µM | 10 µM | – | – | 12 µM | 7.9 µM | 6.1 µM | 8.7 µM | – | –
N[C@H]1CC[C@H](Nc2nc(NNCCO)c3ncn(C4CCCC4)c3n2)CC1 [Example 14, 2-[Trans-(4-aminocyclohexyl)amino]-6-[2-hydroxyethylhydrazino]-9-cyclopentylpurine dihydrochloride] | 34 µM | 17 µM | 16 µM | 19 µM | 22 µM | 0.058 µM and 0.067 µM | 27 µM | 22 µM | 20 µM | 0.046 µM | 17 µM | 21 µM | 24 µM | 29 µM | – | – | 44 µM | 15 µM | –

Second part, the compound after the results:

IC50 (HT-29; [1]) | IC50 (Colo-205; [2]) | IC50 (Colo-205; [3]) | IC50 (MDA-MB-231; [4]) | IC50 (MDA-MB-231; [3]) | IC50 (cdk4/cyclin D1) | IC50 (MDA-MB-435; [3]) | IC50 (DMS-114; [5]) | IC50 (DMS-114; [3]) | IC50 (cdk2/cyclin E) | IC50 (DU 145; [6]) | IC50 (DU 145; [3]) | IC50 (A549; [7]) | IC50 (HT-29; [3]) | IC50 (PC-3; [8]) | IC50 (PC-3; [3]) | IC50 (MDA-MB-435; [9]) | IC50 (A549; [3]) | IC50 (DU 145; Homo sapiens, DU-145, values without *) | Structure (SMILES)
16 µM | – | – | 19 µM | 25 µM | 4 µM and 2.5 µM | 38 µM | 28 µM | 23 µM | 0.27 µM | 15 µM | 17 µM | – | > 20 µM | 16 µM | – | 23 µM | 10 µM | – | CCC(C)(CO)Nc1nc(N[C@H]2CC[C@H](N)CC2)nc2c1ncn2C1CCCC1 (some centres unmarked) [Example 23, dihydrochloride]
1.8 µM | 1.9 µM | 2.1 µM | 1.3 µM | 1.6 µM | 0.19 µM and 0.22 µM | 4.5 µM | 1.4 µM | – | 0.038 µM | 1.7 µM | – | – | – | – | – | 3.2 µM | – | 0.86 µM | CNc1nc(N[C@H]2CC[C@H](N)CC2)nc2c1ncn2C1CCCC1 [Example 28, 2-[Trans-(4-aminocyclohexyl)amino]-6-(methylamino)-9-cyclopentylpurine dihydrochloride]
10 µM | 5.6 µM | 6.6 µM | 7.4 µM | 8.6 µM | 0.49 µM and 1 µM | 10 µM | 5.6 µM | – | 0.08 µM and 0.06 µM | 6.7 µM | 4.4 µM | 10 µM | 7.3 µM | – | – | – | – | – | N[C@H]1CC[C@H](Nc2nc(NCCc3ccncc3)c3ncn(C4CCCC4)c3n2)CC1 [Example 31, 2-[Trans-(4-aminocyclohexyl)amino]-6-[(4-pyridyl)-2-ethylamino]-9-cyclopentylpurine dihydrochloride]
7.3 µM | 6.6 µM | 5.5 µM | 8.6 µM | 6 µM | 2.2 µM | 12 µM | 5.6 µM | – | 0.09 µM | 4.4 µM | 4.9 µM | 2.2 µM | 6 µM | – | – | 10 µM | – | – | N[C@H]1CC[C@H](Nc2nc(NCC(F)(F)F)c3ncn(C4CCCC4)c3n2)CC1 [Example 49, 2-[Trans-(4-aminocyclohexyl)amino]-6-[2,2,2-trifluoroethylamino]-9-cyclopentylpurine dihydrochloride]
3.6 µM | 3.1 µM | 3.2 µM | 2.7 µM | 3.1 µM | 1.8 µM | 5.1 µM | 1.7 µM | – | 91 nM and 44 nM (2×) | 2.3 µM | 2.8 µM | – | – | – | – | 5.6 µM | – | – | N[C@H]1CC[C@H](Nc2nc(NNCC(F)(F)F)c3ncn(C4CCCC4)c3n2)CC1 [Example 52, 2-[Trans-(4-aminocyclohexyl)amino]-6-[2,2,2-trifluoroethylhydrazino]-9-cyclopentylpurine dihydrochloride]
